For one experiment, the system named is 5×FAD mice. Kind of experiment: ABETA Mab1 i.p. in 5×FAD mice with intact or ablated meningeal lymphatics: Aβ plaques, LAMP1, IBA1, CD68, fibrinogen. Type of experiment: in vivo, mouse. As for the experimental part: Upon recovery, mice received intraperitoneal (i.p.) injections of ABETA Mab1 (a murine antibody against Aβ protofibrils) or the control murine IgG (mIgG) antibodies, each at a dose of 40 mg/kg. Antibodies were injected weekly for a total of four weeks. Additional steps of meningeal lymphatic vessel ablation or control interventions were followed by four weekly injections with antibodies. Mice were tested in the open field and Morris water maze.
In another set of experiment 5×FAD mice of 3-3.5 months-old were injected (i.p.) with anti-Abeta antibody (ABETA Mab1) or mIgG (each at 40 mg/kg) following the exact same treatment regimen (FIG. 10A).
Treatments with anti-Aβ monoclonal antibodies. ABETA Mab1 and respective control IgG2a (mIgG) antibodies were manufactured by Absolute Antibody Ltd., Oxford Centre for Innovation, United Kingdom. Anti-Aβ monoclonal antibodies and respective mIgG controls were administered via intraperitoneal (i.p.) injection, at a dose of 40 mg/kg. Antibody dosages are also specified in the main text, illustrated in schemes and in each figure legend. Alternatively, ABETA Mab1 and mIgG antibodies were injected directly into the CSF, following the methodology described in the next section.
Meningeal lymphatic vessel ablation. Selective ablation of the meningeal lymphatic vessels was achieved by injection of Visudyne (Vis.) and consecutive transcranial photoconversion (photo.) steps following previously described methodology and regimens (Da Mesquita, S. et al. Functional aspects of meningeal lymphatics in ageing and Alzheimer's disease. Nature 560, 185-191, (2018); Louveau, A. et al. CNS lymphatic drainage and neuroinflammation are regulated by meningeal lymphatic vasculature. Nat Neurosci 21, 1380-1391, (2018)). Visudyne was reconstituted following manufacturer instructions, aliquoted and kept at −20° C. until further used. […] Each spot was irradiated with a light dose of 50 J/cm^2 at an intensity of 600 mW/cm^2 for a total of 83 s. […]
Immunohistochemistry, imaging and quantifications. […]

A further experiment relates to WT mice. Kind of experiment: In vivo measurement of CSF outflow into dCLNs (fluorescent microspheres). To be noted: 1 week after photoablation. Also on record: species or system mouse. The protocol:
Adult 2 months-old WT mice were injected (i.c.m.) with Visudyne (5 μL) followed by a transcranial photoconversion step (Vis./photo.) to ablate meningeal lymphatic vessels. Control mice were injected with Visudyne without photoconversion (Vis.). One week later, mice were injected with 5 μL of a suspension of fluorescent microspheres (1 μm in diameter) into the CSF and 15 minutes later the lymphatic vessel afferent to the deep cervical lymph node (dCLN) was imaged by in vivo stereomicroscopy. Representative images of skull cap show microspheres and lymphatic vessels stained for LYVE-1 around the confluence of sinuses (COS) and transverse sinus (TS) at the dorsal brain meninges or around the sigmoid (SS) and petrosquamosal (PSS) sinuses at the basal brain meninges (scale bars, 500 μm). […]
In vivo measurement of CSF outflow into dCLNs. […] Fluorescent microsphere drainage was analyzed in FIJI software by drawing a line demarcating the draining lymphatic vessel afferent to the dCLN and manually counting the beads passing the line by a blinded experimenter. […]

Setting [1] is: 5×FAD mice with reduced meningeal lymphatic drainage.

On to verteporfin [Visudyne], for which the “brain coverage by LAMP1+ dystrophic neurites” value in the experiment with 5×FAD mice (5×FAD mice with dysfunctional versus intact meningeal lymphatics) is on record as “significantly increased”. For the same substance, in the experiment with 5×FAD mice (setting [1]), the “fibrinogen levels in the brain” value is “increased fibrinogen levels” and the “myeloid cell activation (IBA1+ coverage, peri-Aβ plaque IBA1+ cells, CD68 on IBA1+ cells)” value is reported as “aberrant activation of myeloid cells”. In the experiment with WT mice, the “CSF drainage (microspheres from the CSF into the dCLNs)” value is reported as “significant reduction”.
